Some test systems named below: SN12C; OVCAR-4; A549; TK-10; SK-MEL-5; RXF 393; MOLT-4; COLO 205; Malme-3M; KM-20L2; LOX IMVI; SF-539; NCI-H522; RPMI-8226; UACC-62; PC-3; Hs-578T; MDA-MB-231; MCF7; DU-145.
Common to all, as to test: growth of human tumour cells (NCI), 48 h

Molecules are shown by their SMILES.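 Briefly, cells in 96-well plates were exposed to five compound concentrations for 48 h, and endpoints were estimated by linear interpolation. The concentration for 50% growth inhibition is given as GI50.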 Activity calls are given as the source filed them. Rule as the data show it: active = GI50 up to about 1.1 µM and inactive = higher. *1 amine or outer side, *2 acyl side, *3 side chain or, on linkers, in order; H or OH if unused. Where a SMILES comes first, the peptide text is derived from it. Bridges are numbered along the chain shown (N, C = ends). Roman numbers before positions name the chains, in order. [ ]: non-standard residue; d: D form. Actinocin(9to1) = Cc1c2oc3c(C)ccc(C(=O)[*:1])c3nc-2c(C(=O)[*:2])c(N)c1=O; NMeV = CN[CH](C(=O)O)C(C)C; Sar = CNCC(=O)O Where only a bound is given, the exact number is not on record here.

Consider `Cn1cc2ccccc2c1-c1nc(F)nc(Oc2ccc3c(c2)CC[C@@H]2C3CC[C@]3(C)C(O)CCC23)n1` (stereo partly specified), for which the GI50 in the experiment with SN12C was 15.4 µM (inactive); in the experiment with OVCAR-4, 14.2 µM (inactive); in the experiment with A549, 22.1 µM (inactive); in the experiment on TK-10 it was 16.2 µM (inactive); in the experiment on SK-MEL-5 it was 15 µM (inactive); in the experiment with RXF 393 it was 22.6 µM (inactive). The GI50 is 17.6 µM (inactive) with MOLT-4; 22.3 µM (inactive) with COLO 205; 18.3 µM (inactive) with Malme-3M; 20.2 µM (inactive) in the experiment on KM-20L2; 15.8 µM (inactive) in the experiment on LOX IMVI; 17.4 µM (inactive) with SF-539. In the experiment with NCI-H522, the GI50 was 10.9 µM (inactive).
Turning to `O=C(CCC(=O)Nc1ccc(Cl)c(Cl)c1)Cc1nc2ccccc2o1`, the GI50 with SN12C, with OVCAR-4, with A549, in the experiment with TK-10, in the experiment with SK-MEL-5 and in the experiment on RXF 393 was > 100 µM (inactive) in each case. Moreover, the GI50 in the experiment with MOLT-4, in the experiment on COLO 205, with Malme-3M, with KM-20L2, with LOX IMVI and in the experiment on RPMI-8226 was > 100 µM (inactive) throughout. For the same compound, the GI50 in the experiment with SF-539, with UACC-62 and in the experiment on NCI-H522 was > 100 µM (inactive) throughout.
In the case of `COc1ccc(C2C(C(=O)O)=C(COC(C)=O)Oc3cc4c(cc32)OCO4)c(OC)c1` (stereo unspecified), the GI50 in the experiment on SN12C, in the experiment with OVCAR-4, in the experiment with A549, with TK-10, with SK-MEL-5 and with RXF 393 was > 100 µM (inactive) in each case. For the same compound, the GI50 in the experiment on MOLT-4, in the experiment on COLO 205, in the experiment on Malme-3M, in the experiment on KM-20L2, in the experiment on LOX IMVI and with RPMI-8226 was > 100 µM (inactive) throughout. In addition, the GI50 in the experiment with SF-539 and in the experiment with UACC-62 was > 100 µM (inactive) in each case.
With `CNC1=C(C)C(=O)C(C)=C(C(C)(C)CC(=O)n2cc(F)c(=O)[nH]c2=O)C1=O`, the GI50 in the experiment on SN12C is 8.67 µM (inactive); in the experiment with A549, 5.09 µM (inactive); in the experiment on TK-10 it was > 59.3 µM (inactive); in the experiment on SK-MEL-5 it was 12.3 µM (inactive); in the experiment on RXF 393, > 100 µM (inactive); in the experiment on MOLT-4 it was 26.7 µM (inactive). In addition, the GI50 in the experiment with COLO 205 is 23.6 µM (inactive); in the experiment with Malme-3M, > 43.1 µM (inactive); in the experiment on KM-20L2, 31.3 µM (inactive); in the experiment on LOX IMVI, 71 µM (inactive); in the experiment with RPMI-8226, 6.81 µM (inactive); in the experiment on SF-539, 3.97 µM (inactive). The results for the GI50 in the experiment on UACC-62 and in the experiment on NCI-H522 were 45.4 µM (inactive) and 35 µM (inactive), respectively.
Consider `C=C1CCC2C(C)(CO)C(O)CCC2(C)C1CC(O)C1=CCOC1=O` (stereo unspecified), for which the GI50 with SN12C is 31.4 µM (inactive); in the experiment on OVCAR-4, 61.1 µM (inactive); with A549, 55.2 µM (inactive); in the experiment with TK-10 it was > 100 µM (inactive); in the experiment on SK-MEL-5, 77.1 µM (inactive); in the experiment with MOLT-4, > 100 µM (inactive). Further, the GI50 was 38.5 µM (inactive) in the experiment with COLO 205; > 100 µM (inactive) with Malme-3M; 47.4 µM (inactive) in the experiment with KM-20L2; 33.5 µM (inactive) in the experiment with LOX IMVI; > 100 µM (inactive) in the experiment on RPMI-8226; 24.3 µM (inactive) in the experiment on SF-539. The GI50 was > 100 µM (inactive) in the experiment on UACC-62 and 5.36 µM (inactive) in the experiment on NCI-H522.
On to `NC1=Nc2ccccc2Sc2nc3ccccc3n21`, for which the GI50 in the experiment on PC-3 is 9.62 µM (inactive); with Hs-578T, 55.7 µM (inactive); with SN12C, 48.2 µM (inactive); in the experiment on OVCAR-4, 7.85 µM (inactive); in the experiment on MDA-MB-231 it was 19.1 µM (inactive); with MCF7, 5.53 µM (inactive). Besides, the GI50 with A549 is 26.7 µM (inactive); in the experiment on TK-10, > 100 µM (inactive); in the experiment with SK-MEL-5, 5.4 µM (inactive); with RXF 393, 19.4 µM (inactive); in the experiment on MOLT-4, 4.54 µM (inactive); in the experiment on COLO 205, 7.8 µM (inactive). The GI50 in the experiment with DU-145 is 39.6 µM (inactive); with Malme-3M it was > 100 µM (inactive); in the experiment on LOX IMVI it was 18.9 µM (inactive); in the experiment on RPMI-8226, 4.46 µM (inactive); with SF-539 it was 21.1 µM (inactive); in the experiment on UACC-62 it was 23.9 µM (inactive). For the same compound, the GI50 in the experiment on NCI-H522 is 13.9 µM (inactive).
`COC(=O)C(=O)C(C(=O)C(=O)Nc1ccccc1C(N)=O)c1nc2ccc(C(=O)c3ccccc3)cc2nc1O` (stereo unspecified): the GI50 was > 100 µM (inactive) in the experiment with SN12C; > 100 µM (inactive) in the experiment with OVCAR-4; > 100 µM (inactive) in the experiment on A549; > 100 µM (inactive) with TK-10; 52.6 µM (inactive) with SK-MEL-5; 80.2 µM (inactive) in the experiment on RXF 393. The GI50 in the experiment on MOLT-4 was 92.5 µM (inactive); in the experiment on COLO 205 it was > 100 µM (inactive); in the experiment on Malme-3M it was > 100 µM (inactive); in the experiment with KM-20L2, > 100 µM (inactive); with RPMI-8226 it was > 100 µM (inactive); in the experiment with SF-539, > 100 µM (inactive). In addition, the GI50 with UACC-62 is 27.6 µM (inactive); in the experiment on NCI-H522, 23.5 µM (inactive).
Take `CC(C)N(C(=O)C12C3C4C5C3C1(C(=O)N(C(C)C)C(C)C)C5(C#N)C42)C(C)C` (stereo unspecified): the GI50 in the experiment on SN12C was > 100 µM (inactive); in the experiment on OVCAR-4 it was > 100 µM (inactive); with A549 it was 86.3 µM (inactive); with TK-10, > 100 µM (inactive); in the experiment on SK-MEL-5, > 100 µM (inactive); with MOLT-4, > 100 µM (inactive). The GI50 in the experiment on COLO 205 was 40.5 µM (inactive); with Malme-3M, > 100 µM (inactive); in the experiment with KM-20L2, > 100 µM (inactive); with LOX IMVI, 20.8 µM (inactive); in the experiment with RPMI-8226 it was 26.7 µM (inactive); in the experiment on SF-539, > 100 µM (inactive). In addition, the GI50 with UACC-62 and in the experiment on NCI-H522 was > 100 µM (inactive) throughout.
Take `COC1CC(OC2CCC3(C)C(=CCC4C3C(OC(C)=O)C(OC(=O)CC(C)C)C3(C)C(C(C)=O)CCC43O)C2)OC(C)C1OC1CC(OC)C(OC2CC(OC)C(OC3OC(C)C(O)C(OC)C3O)C(C)O2)C(C)O1` (stereo unspecified): the GI50 in the experiment with PC-3 was 18.5 µM (inactive); in the experiment with Hs-578T, 49.8 µM (inactive); in the experiment on SN12C, 34.8 µM (inactive); in the experiment on OVCAR-4, 39.5 µM (inactive); with MDA-MB-231, 26.5 µM (inactive); in the experiment on MCF7, 21.9 µM (inactive). Also, the GI50 with A549 is 37.2 µM (inactive); with TK-10 it was 25.9 µM (inactive); in the experiment on SK-MEL-5, 18.7 µM (inactive); in the experiment with RXF 393 it was 20.1 µM (inactive); with MOLT-4, 23.8 µM (inactive); with COLO 205, 22 µM (inactive). Moreover, the GI50 in the experiment with DU-145 was 40.6 µM (inactive); with Malme-3M it was 43 µM (inactive); in the experiment with LOX IMVI it was 20.2 µM (inactive); with RPMI-8226, 17.7 µM (inactive); with SF-539, 21.9 µM (inactive); with UACC-62, 26.1 µM (inactive). Also, the GI50 in the experiment with NCI-H522 is 37.9 µM (inactive).
With `COc1cc(C(Cc2ccccc2)NC(C)=O)oc(=O)c1` (stereo unspecified), the GI50 with SN12C was > 100 µM (inactive); with OVCAR-4, > 100 µM (inactive); in the experiment with A549, > 100 µM (inactive); in the experiment with TK-10, 4.14 µM (inactive); in the experiment with SK-MEL-5, > 100 µM (inactive); with RXF 393 it was > 100 µM (inactive). Also, the GI50 in the experiment on COLO 205, with Malme-3M, in the experiment with KM-20L2, in the experiment on LOX IMVI, with RPMI-8226 and in the experiment with UACC-62 was > 100 µM (inactive) in each case. In addition, the GI50 in the experiment with NCI-H522 is > 100 µM (inactive).
As for `Nc1ccc(C(=O)CC2(O)C(=O)Nc3c(Cl)cc(Cl)cc32)cc1` (stereo unspecified), the GI50 was > 100 µM (inactive) in the experiment with SN12C; > 100 µM (inactive) in the experiment with OVCAR-4; > 100 µM (inactive) with A549; > 100 µM (inactive) with TK-10; > 100 µM (inactive) in the experiment on RXF 393; 46.8 µM (inactive) in the experiment on MOLT-4. The GI50 in the experiment with COLO 205 is > 100 µM (inactive); with Malme-3M, > 100 µM (inactive); in the experiment with KM-20L2, > 100 µM (inactive); with LOX IMVI, 34.5 µM (inactive); in the experiment on RPMI-8226, 50.9 µM (inactive); in the experiment with SF-539, > 100 µM (inactive). For the same compound, the GI50 with NCI-H522 was 42.5 µM (inactive).
As to `Cc1c2oc3c(C)ccc(C(=O)NC4C(=O)NC(Cc5ccccc5)C(=O)N5CCCC5C(=O)N(C)CC(=O)N(C)C(C(C)C)C(=O)OC4C)c3nc-2c(C(=O)NC2C(=O)NC(Cc3ccccc3)C(=O)N3CCCC3C(=O)N(C)CC(=O)N(C)C(C(C)C)C(=O)OC2C)c(N)c1=O` (stereo unspecified) (I: TFP[Sar][NMeV] / II: TFP[Sar][NMeV]; ester I:1-I:C, II:1-II:C; linker I:N-II:N via Actinocin(9to1); configuration not given here), the GI50 was < 0.001 µM (active) in the experiment with PC-3; 0.0011 µM (active) in the experiment with Hs-578T; < 0.001 µM (active) in the experiment with SN12C; 0.0171 µM (active) in the experiment on OVCAR-4; 0.022 µM (active) in the experiment with MDA-MB-231; < 0.001 µM (active) with MCF7. The GI50 was < 0.001 µM (active) in the experiment with A549; 0.021 µM (active) in the experiment on TK-10; < 0.001 µM (active) with SK-MEL-5; 0.0135 µM (active) with RXF 393; < 0.001 µM (active) in the experiment with MOLT-4; < 0.001 µM (active) in the experiment on COLO 205. The GI50 with DU-145 is < 0.001 µM (active); in the experiment on Malme-3M, < 0.001 µM (active); in the experiment on LOX IMVI, < 0.001 µM (active); in the experiment on RPMI-8226, < 0.001 µM (active); in the experiment with SF-539, 0.123 µM (active); in the experiment on UACC-62, < 0.001 µM (active). In addition, the GI50 in the experiment on NCI-H522 was < 0.001 µM (active).

Source of the values: ChEMBL document CHEMBL1201862, “PubChem BioAssay data set” (2004).
